This is an account of results in ChEMBL document CHEMBL5728516, “4,6-substituted-pyrazolo[1,5-a]pyrazines as janus kinase inhibitors” (2021).

This assay concerns the target Tyrosine-protein kinase JAK2 (Homo sapiens, UniProt O60674). Description: JAK2 Inhibition Assay: Compounds of Formula I were screened for their ability to inhibit JAK2 using the general enzyme inhibition assay method, in which the assay mixture contained 1 mM ATP, 10 μM Omnia® Y7 peptide (Catalog # IVGN KNZ3071C, Invitrogen Corporation, Carlsbad, Calif.) and 4 nM JAK2 in a total volume of 25 μL. JAK2 was purchased from Invitrogen Corporation, Carlsbad, Calif. (catalog # IVGN PV4288).

Where only a bound is given, the exact number is not on record here.

Sequence of Tyrosine-protein kinase JAK2 (O60674 whole entry): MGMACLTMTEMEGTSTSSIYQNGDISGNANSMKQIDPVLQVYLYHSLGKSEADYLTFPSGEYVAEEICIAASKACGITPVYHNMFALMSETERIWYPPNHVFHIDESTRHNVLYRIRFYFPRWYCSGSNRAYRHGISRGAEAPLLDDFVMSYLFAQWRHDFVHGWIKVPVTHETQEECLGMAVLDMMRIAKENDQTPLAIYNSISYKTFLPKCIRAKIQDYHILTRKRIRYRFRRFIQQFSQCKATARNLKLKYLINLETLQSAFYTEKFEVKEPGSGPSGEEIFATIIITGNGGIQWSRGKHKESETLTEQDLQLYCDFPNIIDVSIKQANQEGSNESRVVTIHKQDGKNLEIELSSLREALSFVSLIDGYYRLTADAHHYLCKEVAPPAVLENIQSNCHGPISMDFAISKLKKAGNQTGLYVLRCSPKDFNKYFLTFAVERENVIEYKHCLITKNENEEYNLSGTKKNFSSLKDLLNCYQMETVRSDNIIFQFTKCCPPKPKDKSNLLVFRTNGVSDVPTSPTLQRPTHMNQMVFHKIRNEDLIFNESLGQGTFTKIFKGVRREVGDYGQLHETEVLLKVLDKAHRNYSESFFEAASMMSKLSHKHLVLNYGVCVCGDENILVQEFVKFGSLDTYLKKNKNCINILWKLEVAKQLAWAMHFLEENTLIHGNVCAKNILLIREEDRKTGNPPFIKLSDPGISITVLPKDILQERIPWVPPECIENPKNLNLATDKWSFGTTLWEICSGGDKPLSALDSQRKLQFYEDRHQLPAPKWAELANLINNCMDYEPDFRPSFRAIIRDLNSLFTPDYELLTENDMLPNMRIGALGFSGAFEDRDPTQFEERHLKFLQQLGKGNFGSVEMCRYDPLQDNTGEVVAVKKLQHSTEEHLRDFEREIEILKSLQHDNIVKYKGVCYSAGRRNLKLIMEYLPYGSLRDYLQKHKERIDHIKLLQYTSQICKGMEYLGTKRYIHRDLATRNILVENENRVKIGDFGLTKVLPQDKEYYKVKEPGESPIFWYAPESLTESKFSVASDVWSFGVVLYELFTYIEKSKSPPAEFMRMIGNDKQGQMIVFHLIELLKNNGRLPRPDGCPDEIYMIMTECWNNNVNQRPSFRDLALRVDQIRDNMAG

What is called IC50 is the concentration that inhibits the measured activity by half. For `CCC(CC)n1cc(-c2nc(-c3cnn([C@H]4C[C@](O)(CO)C4)c3)cn3nccc23)cn1`, the IC50 was below 0.01 µM.
